Experimental data from BindingDB's records for doi:10.1016/j.bmcl.2007.07.011 (Bristol Myers Squibb, 2007).

Molecular target: T1, Polyunsaturated fatty acid lipoxygenase ALOX15 (Oryctolagus cuniculus, UniProt P12530)
T1 sequence (P12530 whole entry): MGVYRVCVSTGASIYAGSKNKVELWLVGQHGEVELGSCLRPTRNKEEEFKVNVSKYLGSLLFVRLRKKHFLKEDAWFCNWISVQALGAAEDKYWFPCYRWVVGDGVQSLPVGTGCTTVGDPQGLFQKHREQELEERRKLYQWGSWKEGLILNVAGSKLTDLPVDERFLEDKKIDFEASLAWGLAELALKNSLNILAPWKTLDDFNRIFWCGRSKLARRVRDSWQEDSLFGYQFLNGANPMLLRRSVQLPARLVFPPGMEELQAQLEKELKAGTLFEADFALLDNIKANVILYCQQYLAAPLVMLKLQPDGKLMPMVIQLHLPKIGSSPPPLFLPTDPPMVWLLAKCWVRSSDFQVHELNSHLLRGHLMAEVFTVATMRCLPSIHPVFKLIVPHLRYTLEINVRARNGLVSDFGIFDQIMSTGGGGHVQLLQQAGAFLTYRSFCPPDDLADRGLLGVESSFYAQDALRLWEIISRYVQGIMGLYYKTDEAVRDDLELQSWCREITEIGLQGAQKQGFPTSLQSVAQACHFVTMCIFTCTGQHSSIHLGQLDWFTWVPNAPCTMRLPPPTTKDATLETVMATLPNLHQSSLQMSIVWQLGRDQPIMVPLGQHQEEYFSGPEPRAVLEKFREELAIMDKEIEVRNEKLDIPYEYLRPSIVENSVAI
Assay: Enzyme Inhibition Assay
Protocol: The inhibitory activity of the compounds against purified 15-LO enzyme was determined using a standard colorimetric assay in which the lipid hydroperoxide product (13-hydroperoxyoctadecadienoic acid) oxidizes Fe2+. The Fe3+ forms a chromophore with xylenol orange that absorbs strongly at 560 nm.

With `CCCCCc1ccc(S(=O)(=O)NCCc2nc(-c3ccc(Cl)cc3)[nH]c2-c2ccc(OC)cc2)cc1` [N-{2-[2-(4-chlorophenyl)-5-(4-methoxyphenyl)-1H-imidazol-4-yl]ethyl}-4-pentylbenzene-1-sulfonamide] the IC50 was 210 nM.

`COc1ccc(-c2nc(-c3cccs3)[nH]c2CCNS(=O)(=O)N(C)[C@@H]2CCN(c3ccc(Cl)c(Cl)c3)C2)cc1` [{[(3R)-1-(3,4-dichlorophenyl)pyrrolidin-3-yl](methyl)sulfamoyl}({2-[5-(4-methoxyphenyl)-2-(thiophen-2-yl)-1H-imidazol-4-yl]ethyl})amine] was tested, and the IC50 was 11 nM.
